IC50 data for 41 molecules are collected here from patent publication US20130029942A1, “COMPOUNDS AND THERAPEUTICAL USES THEREOF” (Myrexis, Inc., priority 2003, published 2013).

As a reminder, the IC50 is the concentration needed to halve the response being measured.

Structures are written as SMILES.

The test deals with P388 murine leukemia cell line. Briefly: P388 cytotoxicity (ATP-Lite, 72 hours). It is filed as cell-based. The conditions noted are these: Mus musculus, P388, 72 hours. The protocol:
A P388 murine leukemia cell line was obtained from NCI, Frederick, Md. P388 cells were cultured in RPMI-1640 supplemented with 10% fetal bovine serum, 2 mM Glutamax, 1 mM sodium pyruvate, 0.1 mM non-essential amino acids and 10 mM HEPES. Cells were grown at 37° C. in a humidified 5% CO2 atmosphere. Exponentially growing P388 cells were plated at 5,000 cells/well in a 96-well flat-bottomed microtiter plate (Corning, Costar #3595). […] Cellular viability was determined 72 hours later by measuring intracellular ATP with ATP-Lite assay system. The effect of compounds on cell viability was calculated by comparing the ATP levels of cells exposed to test compound with those of cells exposed to DMSO. […] Data was analyzed by Prism software (GraphPad; San Diego, Calif.) by fitting it to a sigmoidal dose response curve.
`Cc1nc(N(C)c2ccc(OC(F)F)cc2)c2cc([N+](=O)[O-])ccc2n1` [Example 209, (4-Difluoromethoxy-phenyl)-methyl-(2-methyl-6-nitro-quinazolin-4-yl)-amine] came in with a 50% inhibitory concentration (IC50) of 490 nM. `COc1ccc(N(C)c2nc(C)nc3ccc([N+](=O)[O-])cc23)cc1F` [Example 210, (3-Fluoro-4-methoxy-phenyl)-methyl-(2-methyl-6-nitro-quinazolin-4-yl)-amine]: the midpoint of inhibition, the IC50, lay at 57 nM. The result for `CCOc1ccc(N(C)c2nc(CN)nc3ccccc23)cc1` [Example 211, (2-Aminomethyl-quinazolin-4-yl)-(4-ethoxy-phenyl)-methyl-amine] reads 15 nM; that for `COc1ccc(N(C)c2nc(CCN)nc3ccccc23)cc1` [Example 212, [2-(2-Amino-ethyl)-quinazolin-4-yl]-(4-methoxy-phenyl)-methyl-amine], 250 nM; that for `COc1ccc(N(C)c2nc(CN)nc3ccc(N)cc23)cc1` [Example 213, 2-Aminomethyl-N4-(4-methoxy-phenyl)-N4-methyl-quinazoline-4,6-diamine], 170 nM. In the case of `CCOc1ccc(N(C)c2nc(C)nc3ccc(N)cc23)cc1` [Example 214, N^4-(4-Ethoxy-phenyl)-2,N^4-dimethyl-quinazoline-4,6-diamine], the midpoint of inhibition, the IC50, lay at 9 nM.

With `COc1ccc(N(C)c2nc(C)nc3ccc(N)cc23)cc1F` [Example 215, N^4-(3-Fluoro-4-methoxy-phenyl)-2,N^4-dimethyl-quinazoline-4,6-diamine], half-maximal inhibition (IC50) required 3 nM. The result for `Cc1nc(N(C)c2ccc(OC(F)F)cc2)c2cc(N)ccc2n1` [Example 216, N^4-(4-Difluoromethoxy-phenyl)-2,N^4-dimethyl-quinazoline-4,6-diamine] reads 20 nM; that for `CC(C)Oc1ccc(N(C)c2nc(CN)nc3ccccc23)cc1` [Example 217, (2-Aminomethyl-quinazolin-4-yl)-(4-isopropoxy-phenyl)-methyl-amine], 18 nM; that for `COc1ccc(N(C)c2nc(CN)nc3ccccc23)c(F)c1` [Example 218, (2-Aminomethyl-quinazolin-4-yl)-(2-fluoro-4-methoxy-phenyl)-methyl-amine], 12 nM. The result for `COc1ccc(N(C)c2nc(CN)nc3ccc(Br)cc23)cc1` [Example 219, (2-Aminomethyl-6-bromo-quinazolin-4-yl)-(4-methoxy-phenyl)-methyl-amine] reads 250 nM.

With `CC(C)Oc1ccc(N(C)c2nc(CN)nc3ccc(N)cc23)cc1` [Example 220, 2-Aminomethyl-N^4-(4-isopropoxy-phenyl)-N^4-methyl-quinazoline-4,6-diamine], the midpoint of inhibition, the IC50, lay at 870 nM. The result for `COc1ccc(N(C)c2nc(C)nc3ccc([N+](=O)[O-])cc23)c(F)c1` [Example 221, (2-Fluoro-4-methoxy-phenyl)-methyl-(2-methyl-6-nitro-quinazolin-4-yl)-amine] reads 58 nM; that for `COc1ccc(N(C)c2nc(C)nc3ccc(N)cc23)c(F)c1` [Example 222, N^4-(2-Fluoro-4-methoxy-phenyl)-2,N^4-dimethyl-quinazoline-4,6-diamine], 6 nM; that for `COc1ccc(N(C)c2nc(C)nc3ccc(N)cc23)cc1OC` [Example 223, N^4-(3,4-Dimethoxy-phenyl)-2,N^4-dimethyl-quinazoline-4,6-diamine], 64 nM.

In turn, `Cc1nc(N(C)c2ccc(OC(C)C)cc2)c2cc([N+](=O)[O-])ccc2n1` [Example 224, (4-Isopropoxy-phenyl)-methyl-(2-methyl-6-nitro-quinazolin-4-yl)-amine] displayed a concentration for half-maximal inhibition (IC50) of 170 nM. Molecule `CNc1ccc(N(C)c2nc(C)nc3ccc(N)cc23)cc1` [Example 225, 2,N^4-Dimethyl-N^4-(4-methylamino-phenyl)-quinazoline-4,6-diamine] returned an IC50 of 37 nM. The result for `Cc1nc(N(C)c2ccc(OC(C)C)cc2)c2cc(N)ccc2n1` [Example 226, N^4-(4-Isopropoxy-phenyl)-2,N^4-dimethyl-quinazoline-4,6-diamine] reads 20 nM; that for `COc1ccc(N(C)c2nc(N(C)CCCN)nc3ccccc23)cc1` [Example 227, N^2-(3-Amino-propyl)-N^4-(4-methoxy-phenyl)-N^2,N^4-dimethyl-quinazoline-2,4-diamine], 27 nM; that for `CNCCCNc1nc(N(C)c2ccc(OC)cc2)c2ccccc2n1` [Example 228, N^4-(4-Methoxy-phenyl)-N^4-methyl-N^2-(3-methylamino-propyl)-quinazoline-2,4-diamine], 900 nM. The result for `COc1ccc(N(C)c2nc(CN)nc3cccc(F)c23)cc1` [Example 229, (2-Aminomethyl-5-fluoro-quinazolin-4-yl)-(4-methoxy-phenyl)-methyl-amine] reads 5 nM; that for `CN(c1ccc(O)cc1)c1nc(CN)nc2ccccc12` [Example 230, 4-[(2-Aminomethyl-quinazolin-4-yl)-methyl-amino]-phenol], 1700 nM. The result for `COc1ccc(N(C)c2nc(C(C)(C)C#N)nc3ccccc23)cc1` [Example 231, 2-{4-[(4-Methoxy-phenyl)-methyl-amino]-quinazolin-2-yl}-2-methyl-propionitrile] reads 37 nM; that for `COc1ccc(N(C)c2nc(CNC(=O)CCC(=O)O)nc3ccccc23)cc1` [Example 232, N-{4-[(4-Methoxy-phenyl)-methyl-amino]-quinazolin-2-ylmethyl}-succinamic acid], 950 nM. In turn, `CNCc1nc(N(C)c2ccc(OC)cc2)c2ccccc2n1` [Example 233, (4-Methoxy-phenyl)-methyl-(2-methylaminomethyl-quinazolin-4-yl)-amine] registered an IC50 of 1100 nM. The result for `COc1ccc(N(C)c2nc(CN)nc3ccccc23)cc1F` [Example 234, (2-Aminomethyl-quinazolin-4-yl)-(3-fluoro-4-methoxy-phenyl)-methyl-amine] reads 11 nM; that for `CCOc1ccc(N(C)c2nc(CN)nc3ccccc23)cc1F` [Example 235, (2-Aminomethyl-quinazolin-4-yl)-(4-ethoxy-3-fluoro-phenyl)-methyl-amine], 5 nM; that for `COc1ccc(N(C)c2nc(C)nc3ccc(NS(=O)(=O)c4ccc(OC)cc4)cc23)cc1` [Example 236, 4-Methoxy-N-{4-[(4-methoxy-phenyl)-methyl-amino]-2-methyl-quinazolin-6-yl}-benzenesulfonamide], 680 nM. `CCOc1ccc(N(C)c2nc(CN)nc3ccccc23)c(F)c1` [Example 237, (2-Aminomethyl-quinazolin-4-yl)-(4-ethoxy-2-fluoro-phenyl)-methyl-amine] came in with a half-maximal inhibitory concentration (IC50) of 15 nM. `COc1ccc(N(C)c2nc(CNC(=O)[C@H](C)N)nc3ccccc23)cc1` [Example 238, (S)-2-Amino-N-{4-[(4-methoxy-phenyl)-methyl-amino]-quinazolin-2-ylmethyl}-propionamide] came in with an IC50 of 12 nM. The result for `CCOc1ccc(N(C)c2nc(CN)nc3cccc(F)c23)cc1` [Example 239, (2-Aminomethyl-5-fluoro-quinazolin-4-yl)-(4-ethoxy-phenyl)-methyl-amine] reads 22 nM. `COc1ccc(N(C)c2nc(CN)nc3ccccc23)cc1Cl` [Example 240, (2-Aminomethyl-quinazolin-4-yl)-(3-chloro-4-methoxy-phenyl)-methyl-amine] showed a half-inhibitory concentration (IC50) of 6 nM.

`COc1ccc(N(C)c2nc(CN)nc3ccc(-c4ccc(Cl)cc4)cc23)cc1` [Example 241, [2-Aminomethyl-6-(4-chloro-phenyl)-quinazolin-4-yl]-(4-methoxy-phenyl)-methyl-amine] showed an IC50 of 1440 nM. Consider `COc1ccc(N(C)c2nc(CCl)nc3ccccc23)cc1Cl` [Example 242, (3-Chloro-4-methoxy-phenyl)-(2-chloromethyl-quinazolin-4-yl)-methyl-amine], for which the IC50 turned out to be 10 nM. With `COc1ccc(N(C)c2nc(CN)nc3ccc(-c4ccccc4)cc23)cc1` [Example 243, (2-Aminomethyl-6-phenyl-quinazolin-4-yl)-(4-methoxy-phenyl)-methyl-amine], 4200 nM corresponded to half-maximal inhibition (IC50). The result for `COc1ccc(N(C)c2nc(CNC(=O)c3cccnc3)nc3ccccc23)cc1` [Example 244, N-{4-[(4-Methoxy-phenyl)-methyl-amino]-quinazolin-2-ylmethyl}-nicotinamide] reads 58 nM; that for `COc1ccc(N(C)c2nc(C)nc3ccc(Br)cc23)cc1` [Example 245, (6-Bromo-2-methyl-quinazolin-4-yl)-(4-methoxy-phenyl)-methyl-amine], 2 nM. The result for `CCOc1ccc(N(C)c2nc(C)nc3ccc(Br)cc23)cc1F` [Example 246, (6-Bromo-2-methyl-quinazolin-4-yl)-(4-ethoxy-3-fluoro-phenyl)-methyl-amine] reads 11 nM. The result for `COc1ccc(N(C)c2nc(-c3nnn[nH]3)nc3ccccc23)cc1` [Example 247, (4-Methoxy-phenyl)-methyl-[2-(1H-tetrazol-5-yl)-quinazolin-4-yl]-amine] reads 60 nM.

Take `COc1ccc(N(C)c2nc(CNC(=O)[C@@H](C)N)nc3ccccc23)cc1` [Example 248, (R)-2-Amino-N-{4-[(4-methoxy-phenyl)-methyl-amino]-quinazolin-2-ylmethyl}-propionamide]: the IC50 stood at 222 nM.

For `COc1ccc(N(C)c2nc(C)nc3ccc(C#N)cc23)cc1` [Example 249, 4-[(4-Methoxy-phenyl)-methyl-amino]-2-methyl-quinazoline-6-carbonitrile], it took 20 nM to reach half-maximal inhibition (IC50).
